In series [1] the target is T1, recombinant human 5-HT6 receptor (Homo sapiens, UniProt P50406).
T1 construct: expressed in transfected cells
As to the kind of experiment: Radioligand binding studies: competition for [3H]LSD binding in membranes of HEK293 cells expressing the receptor. As to conditions: [3H]LSD (5 nM), HEK293 cell membranes, 60 min at 37° C., pH 7.4; read-out: pKi for 5-HT6 (converted). How it is done:
The binding activity of compounds of this invention in vitro was determined as follows. Duplicate determinations of ligand affinity are made by competing for binding of [^3H]LSD in cell membranes derived from HEK293 cells stably expressing recombinant human 5-HT6 receptor. This cell line was prepared by the method described by Monsma et al., Molecular Pharmacology, Vol. 43 pp. 320-327 (1993).
All determinations were made in assay buffer containing 50 mM Tris-HCl, 10 mM MgSO4, 0.5 mM EDTA, 1 mM ascorbic acid, pH 7.4 at 37° C., in a 250 microliter reaction volume. Assay tubes containing [^3H] LSD (5 nM), competing ligand, and membrane were incubated in a shaking water bath for 60 min. at 37° C., filtered onto Packard GF-B plates (pre-soaked with 0.3% PEI) using a Packard 96 well cell harvester and washed 3 times in ice cold 50 mM Tris-HCl. Bound [^3H] LSD was determined as radioactive counts per minute using Packard TopCount.
Displacement of [^3H]LSD from the binding sites was quantified by fitting concentration-binding data to a 4-parameter logistic equation:
[formula] where Hill is the Hill slope, [ligand] is the concentration of competing radioligand and IC50 is the concentration of radioligand producing half-maximal specific binding of radioligand. The specific binding window is the difference between the Bmax and the basal parameters.

Counter-ions that a name gives are not always drawn.

T1 sequence (P50406 whole entry): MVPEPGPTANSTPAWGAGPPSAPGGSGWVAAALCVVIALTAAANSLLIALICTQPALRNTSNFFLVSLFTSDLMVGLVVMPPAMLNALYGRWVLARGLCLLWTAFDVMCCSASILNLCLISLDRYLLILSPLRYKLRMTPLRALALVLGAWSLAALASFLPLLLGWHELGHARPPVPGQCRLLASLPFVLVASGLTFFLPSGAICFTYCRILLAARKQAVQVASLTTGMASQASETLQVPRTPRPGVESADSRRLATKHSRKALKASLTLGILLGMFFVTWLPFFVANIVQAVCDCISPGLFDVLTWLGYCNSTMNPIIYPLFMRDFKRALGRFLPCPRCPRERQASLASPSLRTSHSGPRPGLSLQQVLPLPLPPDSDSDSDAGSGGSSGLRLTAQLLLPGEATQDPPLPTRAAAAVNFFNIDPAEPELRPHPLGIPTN

For orientation: melting point means the temperature, or range, at which the solid turns liquid. In the case of `O=C1CCCc2ccccc2N1Cc1cccc(N2CCNCC2)c1` (as salt: maleate) [Compound 17, 1-(3-Piperazin-1-yl-benzyl)-1,3,4,5-tetrahydrobenzo[b]azepin-2-one], the melting point is 149 to 150 °C.
For the compound `COc1cc(CN2C(=O)CCc3ccccc32)cc(N2CCNCC2)c1` [Compound 4, 1-(3-Methoxy-5-piperazin-1-yl-benzyl)-3,4-dihydro-1H-quinolin-2-one], the Ki in series [1] is ~1 nM.

The values above are taken from patent US7476675B2, “Quinolinone derivatives and uses thereof” (Roche Palo Alto LLC, priority 2003, dated 2009).
